The text below walks through data of patent publication US10829481B2, “Benzimidazole derivatives as modulators of ROR-gamma” (Vitae Pharmaceuticals, LLC, priority 2016, dated 2020).

In general, Ki refers to the equilibrium dissociation constant of an inhibitor or competing ligand from its target. By IC50 is commonly meant the concentration needed to halve the response being measured.

Assay [1] addresses recombinant RORγ Ligand Binding Domain (LBD) protein (Homo sapiens (Human), UniProt P51449). Description: Radio-Ligand RORγ Binding Assay (Assay 1). The following applies: competition with 25-hydroxy [26,27-3H]-cholesterol, SPA. As to the method:
Radio-Ligand RORγ Binding Assay (Assay 1)
Compounds described herein were tested for ability to bind to RORγ in a cell-free competition assay with commercially available radio-ligand (RL), 25-hydroxy [26,27-^3H]-cholesterol (PerkinElmer, Cat. #NET674250UC), for a ligand binding site on a recombinant RORγ Ligand Binding Domain (LBD) protein expressed as a 6×His-Glutathione-S-Transferase (GST) fusion. The assay was performed in 96-well SPA plates (PerkinElmer, Cat. #1450-401) in 50 mM HEPES buffer, pH 7.4, containing 150 mM NaCl, 5 mM MgCl2, 10% (v/v) glycerol, 2 mM CHAPS, 0.5 mM β-octylglucopyranoside and 5 mM DTT. Tested compounds were dissolved in DMSO, and semi-log (3.162×) serial dilutions of the compounds were prepared in the same solvent. Two μL of the DMSO solutions were mixed with 28 μL of 8.6 nM 25-hydroxy [26,27-^3H]-cholesterol and 50 μL of 24 nM RORγ LBD. The plate was shaken at 700 rpm for 20 min and incubated for 10 min at rt, after which 40 μL of poly-Lys YSi SPA beads (PerkinElmer, Cat. #RPNQ0010) were added to achieve […] of the beads per well. The plate was incubated on an orbital shaker for 20 min and then for 10 min without agitation at rt. SPA signal for tritium beta radiation was registered on PerkinElmer Microbeta plate reader. […] The percent inhibition vs. concentration data were fit into a four-parameter model, and IC50 values were calculated from the fit as the concentrations corresponding to the inflection points on the dose-response curves. Inhibitory constants (Ki) were calculated using the following equation, where [RL] is the concentration in the assay and KD is a dissociation constant of 25-hydroxy [26,27-^3H]-cholesterol: […]

The target of assay [2] is full-length RORγt in Jurkat cells (Homo sapiens (Human), UniProt P51449). Description: RORγt 5×RORE Assay in Jurkat Cells (Assay 2). Format: cell-based. Conditions: 5×RORE Nanoluc luciferase reporter. How it is done:
RORγt 5×RORE Assay in Jurkat Cells (Assay 2)
Compounds described herein were tested for RORγ inverse agonist activity in a cell-based, transcriptional activity assay. Secreted Nanoluc® luciferase was used as a reporter for transcriptional activity of the full-length RORγt in Jurkat cells (ATCC, Cat. #TIB-152). […] (Promega, Cat. #N1021) using KpnI and HindIII restriction sites. […] After 5-6 hrs of incubation at 37° C./5% CO2, the cells were collected, resuspended in phenol-red free RPMI media containing 10% (v/v) delipidated FBS (Hyclone, Cat. #SH30855.03) and dispensed into 96-well clear bottom tissue culture plates (CoStar, Cat. #3603), at 80,000 cells per well. Tested compounds were added to the cells in the same media (final concentration of DMSO was 0.1% (v/v)), and the plates were incubated at 37° C./5% CO2 for 16-18 hrs. Luciferase activity in the conditioned supernatants was determined with NanoGlo® assay reagents (Promega, Cat. #N1130).
For orientation: A reporter such as luciferase makes a cellular process visible.

Sequence of full-length RORγt in Jurkat cells (P51449 other isoform, or with tags, fused parts or gaps): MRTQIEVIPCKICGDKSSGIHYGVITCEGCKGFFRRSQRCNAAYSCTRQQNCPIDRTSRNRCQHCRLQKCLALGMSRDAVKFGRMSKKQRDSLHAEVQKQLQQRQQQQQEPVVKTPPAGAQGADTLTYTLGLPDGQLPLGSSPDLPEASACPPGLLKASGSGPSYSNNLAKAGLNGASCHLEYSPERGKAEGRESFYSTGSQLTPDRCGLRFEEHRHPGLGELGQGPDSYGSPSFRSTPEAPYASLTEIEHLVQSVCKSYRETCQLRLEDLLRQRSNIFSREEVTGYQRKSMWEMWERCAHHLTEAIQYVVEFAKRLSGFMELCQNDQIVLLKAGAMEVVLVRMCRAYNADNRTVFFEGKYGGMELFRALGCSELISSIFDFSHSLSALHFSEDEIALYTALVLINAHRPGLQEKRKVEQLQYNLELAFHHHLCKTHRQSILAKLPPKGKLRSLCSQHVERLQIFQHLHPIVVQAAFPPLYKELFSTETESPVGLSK
Sequence of recombinant RORγ Ligand Binding Domain (LBD) protein (P51449 269-508): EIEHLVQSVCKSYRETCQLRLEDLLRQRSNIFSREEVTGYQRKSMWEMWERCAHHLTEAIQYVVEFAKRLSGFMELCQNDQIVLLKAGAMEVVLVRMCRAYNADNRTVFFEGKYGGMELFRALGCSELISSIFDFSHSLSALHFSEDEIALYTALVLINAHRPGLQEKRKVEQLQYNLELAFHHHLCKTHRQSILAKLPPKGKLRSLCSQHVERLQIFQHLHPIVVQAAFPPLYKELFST

For the compound “1-((2,2-difluorobenzo[d][1,3]dioxol-4-yl)methyl)-N-((R)-1-(4-(ethylsulfonyl)phenyl)-2-hydroxyethyl)-2-((R)-tetrahydrofuran-2-yl)-1H-benzo[d]imidazole-5-carboxamide [I-15]”, in assay [1], the Ki was less than 100 nM. In assay [2], the IC50 was less than 100 nM.

`CCS(=O)(=O)c1ccc(CNC(=O)c2ccc3c(c2)nc([C@H](C)OC)n3Cc2cccc3c2OC(F)(F)O3)cc1` (mixture of isomers) [I-49.1, (S)-1-((2,2-difluorobenzo[d][1,3]dioxol-4-yl)methyl)-N-(4-(ethylsulfonyl)benzyl)-2-(1-methoxyethyl)-1H-benzo[d]imidazole-5-carboxamide and (R)-1-((2,2-difluorobenzo[d][1,3]dioxol-4-yl)methyl)-N-(4-(ethylsulfonyl)benzyl)-2-(1-methoxyethyl)-1H-benzo[d]imidazole-5-carboxamide]: in assay [1], the Ki was less than 100 nM. Also, the IC50 in assay [2] was less than 100 nM.

For the compound `CCS(=O)(=O)c1ccc(CNC(=O)c2ccc3c(c2)nc([C@@H](C)OC)n3Cc2cccc3c2OC(F)(F)O3)cc1` (mixture of isomers) [I-49.2, (S)-1-((2,2-difluorobenzo[d][1,3]dioxol-4-yl)methyl)-N-(4-(ethylsulfonyl)benzyl)-2-(1-methoxyethyl)-1H-benzo[d]imidazole-5-carboxamide and (R)-1-((2,2-difluorobenzo[d][1,3]dioxol-4-yl)methyl)-N-(4-(ethylsulfonyl)benzyl)-2-(1-methoxyethyl)-1H-benzo[d]imidazole-5-carboxamide], the Ki in assay [1] was less than 100 nM. For the same compound, the IC50 in assay [2] was less than 100 nM.

Consider `CS(=O)(=O)N1CCC([C@@H](CO)NC(=O)c2ccc3c(c2)nc(C(F)(F)F)n3Cc2cccc3c2OC(F)(F)O3)CC1` (mixture of isomers) [I-164.1, (R)-1-((2,2-difluorobenzo[d][1,3]dioxol-4-yl)methyl)-N-(2-hydroxy-1-(1-(methylsulfonyl)piperidin-4-yl)ethyl)-2-(trifluoromethyl)-1H-benzo[d]imidazole-5-carboxamide and (S)-1-((2,2-difluorobenzo[d][1,3]dioxol-4-yl)methyl)-N-(2-hydroxy-1-(1-(methylsulfonyl)piperidin-4-yl)ethyl)-2-(trifluoromethyl)-1H-benzo[d]imidazole-5-carboxamide], for which the Ki in assay [1] was less than 100 nM. In assay [2], the IC50 was less than 100 nM.

For `CS(=O)(=O)N1CCC([C@H](CO)NC(=O)c2ccc3c(c2)nc(C(F)(F)F)n3Cc2cccc3c2OC(F)(F)O3)CC1` (mixture of isomers) [I-164.2, (R)-1-((2,2-difluorobenzo[d][1,3]dioxol-4-yl)methyl)-N-(2-hydroxy-1-(1-(methylsulfonyl)piperidin-4-yl)ethyl)-2-(trifluoromethyl)-1H-benzo[d]imidazole-5-carboxamide and (S)-1-((2,2-difluorobenzo[d][1,3]dioxol-4-yl)methyl)-N-(2-hydroxy-1-(1-(methylsulfonyl)piperidin-4-yl)ethyl)-2-(trifluoromethyl)-1H-benzo[d]imidazole-5-carboxamide], the Ki in assay [1] is less than 100 nM. This compound also showed an IC50 in assay [2] of less than 100 nM.

In the case of `CCS(=O)(=O)c1ccc([C@H](O)C(=O)Nc2ccc3c(c2)nc(C(F)(F)F)n3Cc2cccc3c2OC(F)(F)O3)cc1` (mixture of isomers) [I-170.1, (S)-N-(1-((2,2-difluorobenzo[d][1,3]dioxol-4-yl)methyl)-2-(trifluoromethyl)-1H-benzo[d]imidazol-5-yl)-2-(4-(ethylsulfonyl)phenyl)-2-hydroxyacetamide and (R)-N-(1-((2,2-difluorobenzo[d][1,3]dioxol-4-yl)methyl)-2-(trifluoromethyl)-1H-benzo[d]imidazol-5-yl)-2-(4-(ethylsulfonyl)phenyl)-2-hydroxyacetamide], in assay [1], the Ki is less than 100 nM. In assay [2], this compound gave an IC50 of less than 100 nM.

Regarding `CCS(=O)(=O)c1ccc([C@@H](O)C(=O)Nc2ccc3c(c2)nc(C(F)(F)F)n3Cc2cccc3c2OC(F)(F)O3)cc1` (mixture of isomers) [I-170.2, (S)-N-(1-((2,2-difluorobenzo[d][1,3]dioxol-4-yl)methyl)-2-(trifluoromethyl)-1H-benzo[d]imidazol-5-yl)-2-(4-(ethylsulfonyl)phenyl)-2-hydroxyacetamide and (R)-N-(1-((2,2-difluorobenzo[d][1,3]dioxol-4-yl)methyl)-2-(trifluoromethyl)-1H-benzo[d]imidazol-5-yl)-2-(4-(ethylsulfonyl)phenyl)-2-hydroxyacetamide], the Ki in assay [1] is less than 100 nM. Besides, the IC50 in assay [2] was less than 100 nM.

In the case of `CCS(=O)(=O)c1ccc(CC(=O)Nc2ccc3c(c2)nc(C(F)(F)F)n3Cc2cccc3c2OC(F)(F)O3)cc1` [I-1, N-(1-((2,2-difluorobenzo[d][1,3]dioxol-4-yl)methyl)-2-(trifluoromethyl)-1H-benzo[d]imidazol-5-yl)-2-(4-(ethylsulfonyl)phenyl)acetamide], the Ki in assay [1] was less than 100 nM. The compound further had an IC50 in assay [2] of less than 100 nM.

`CS(=O)(=O)c1ccc(CC(=O)Nc2ccc3c(c2)nc(C(F)(F)F)n3Cc2cccc3c2OC(F)(F)O3)cc1` [I-2, N-(1-((2,2-difluorobenzo[d][1,3]dioxol-4-yl)methyl)-2-(trifluoromethyl)-1H-benzo[d]imidazol-5-yl)-2-(4-(methylsulfonyl)phenyl)acetamide]: the Ki in assay [1] was less than 100 nM. This compound also returned an IC50 in assay [2] of less than 100 nM.

As for `O=C(Cc1ccc(S(=O)(=O)CCO)cc1)Nc1ccc2c(c1)nc(C(F)(F)F)n2Cc1cccc2c1OC(F)(F)O2` [I-3, N-(1-((2,2-difluorobenzo[d][1,3]dioxol-4-yl)methyl)-2-(trifluoromethyl)-1H-benzo[d]imidazol-5-yl)-2-(4-((2-hydroxyethyl)sulfonyl)phenyl)acetamide], in assay [1], the Ki was less than 100 nM. Further, in assay [2], the IC50 was less than 100 nM.

Take `COCCS(=O)(=O)c1ccc(CC(=O)Nc2ccc3c(c2)nc(C(F)(F)F)n3Cc2cccc3c2OC(F)(F)O3)cc1` [I-4, N-(1-((2,2-difluorobenzo[d][1,3]dioxol-4-yl)methyl)-2-(trifluoromethyl)-1H-benzo[d]imidazol-5-yl)-2-(4-((2-methoxyethyl)sulfonyl)phenyl)acetamide]: the Ki in assay [1] is less than 100 nM. In assay [2], this compound had an IC50 of less than 100 nM.

As to `CNS(=O)(=O)c1ccc(CC(=O)Nc2ccc3c(c2)nc(C(F)(F)F)n3Cc2cccc3c2OC(F)(F)O3)cc1` [I-5, N-(1-((2,2-difluorobenzo[d][1,3]dioxol-4-yl)methyl)-2-(trifluoromethyl)-1H-benzo[d]imidazol-5-yl)-2-(4-(N-methylsulfamoyl)phenyl)acetamide], the Ki in assay [1] was less than 100 nM. The IC50 in assay [2] was less than 100 nM.

On to `N#Cc1ccc(CC(=O)Nc2ccc3c(c2)nc(C(F)(F)F)n3Cc2cccc3c2OC(F)(F)O3)cc1` [I-6, 2-(4-cyanophenyl)-N-(1-((2,2-difluorobenzo[d][1,3]dioxol-4-yl)methyl)-2-(trifluoromethyl)-1H-benzo[d]imidazol-5-yl)acetamide], for which, in assay [1], the Ki is less than 100 nM. Besides, the IC50 in assay [2] is more than 1000 nM.

On to `CCS(=O)(=O)c1ccc(CC(=O)Nc2ccc3c(c2)nc(C2CC2)n3Cc2cccc3c2OC(F)(F)O3)cc1` [I-9, N-(2-cyclopropyl-1-((2,2-difluorobenzo[d][1,3]dioxol-4-yl)methyl)-1H-benzo[d]imidazol-5-yl)-2-(4-(ethylsulfonyl)phenyl)acetamide], for which the Ki in assay [1] was less than 100 nM. This compound also returned an IC50 in assay [2] of less than 100 nM.

`CS(=O)(=O)N1CCC(CC(=O)Nc2ccc3c(c2)nc(C(F)(F)F)n3Cc2cccc3c2OC(F)(F)O3)CC1` [I-10, N-(1-((2,2-difluorobenzo[d][1,3]dioxol-4-yl)methyl)-2-(trifluoromethyl)-1H-benzo[d]imidazol-5-yl)-2-(1-(methylsulfonyl)piperidin-4-yl)acetamide]: in assay [1], the Ki was less than 100 nM. In addition, the IC50 in assay [2] is more than 1000 nM.

`CCS(=O)(=O)c1ccc([C@H](CO)NC(=O)c2ccc3c(c2)nc(C(F)(F)F)n3Cc2cccc3c2OC(F)(F)O3)cc1` [I-11.1, (R)-1-((2,2-difluorobenzo[d][1,3]dioxol-4-yl)methyl)-N-(1-(4-(ethylsulfonyl)phenyl)-2-hydroxyethyl)-2-(trifluoromethyl)-1H-benzo[d]imidazole-5-carboxamide]: the Ki in assay [1] was less than 100 nM. In assay [2], this compound registered an IC50 of less than 100 nM.
